The record followed here is paper PMC7997579, “Synthetic Lethality in Pancreatic Cancer: Discovery of a New RAD51-BRCA2 Small Molecule Disruptor That Inhibits Homologous Recombination and Synergizes with Olaparib” (Journal of Medicinal Chemistry, 2020).

In brackets after ≈: the same amount, converted by molar mass. Where two headings read alike, the source gives them in different places.

In data set [1] the test system is homologous recombination in BxPC3 cells. Put plainly: Homologous recombination assay (two-plasmid recombination, real-time PCR). It is filed as cell-based, human. Conditions: Homo sapiens, BXPC-3.
The nature of data set [2]: Solubility (as observed in cell culture media / stated). It is filed as physicochemical.

Take `CCC(=O)N1N=C(c2c(-c3ccccc3)c3cc(Cl)ccc3[nH]c2=O)CC1c1ccc(OC)cc1` (centres unmarked) [Compound 35d, 6-Chloro-3-(5-(4-methoxyphenyl)-1-propionyl-4,5-dihydro-1H-pyrazol-3-yl)-4-phenylquinolin-2(1H)-one]: in data set [1] (10 μM, BxPC3, 5 h during plasmid transfection), the inhibition at 10 µM was roughly 10%. The inhibition at 20 µM in data set [1] (20 μM, BxPC3, 5 h during plasmid transfection) came out at 54%. Moreover, in data set [1] (BxPC3, 5 h, tested up to 40 μM, polynomial regression, read-out: EC50 (dose causing a 50% inhibition of HR)), the EC50 was 18.4 µM. In addition, the solubility in data set [2] (HR assay medium (RPMI, 0.6% DMSO), kinetic from dmso stock, read-out: upper limit in terms of solubility) was 40 µM (≈ 19.4 µg/mL); in data set [2] (stated in conclusions), “low solubility”.
